From patent publication US20180092908A1, “SMALL MOLECULE OXIDIZERS OF PDI AND THEIR USE” (THE TRUSTEES OF COLUMBIA UNIVERSITY IN THE CITY OF NEW YORK, priority 2015, published 2018)
Read-outs that look alike come from different tables or passages of the source.

Legend:
[1] = Mouse microsome stability assay; format: in vitro ADME; conditions: for half-life at 0.5 μM: mouse, liver microsomes, pH 7.4, mouse liver microsomes
Method: At 0, 5, 15, 30 and 45 minute intervals, an aliquot was taken and quenched with acetonitrile (ACN) containing internal standard. No-cofactor controls at 45 minutes were prepared. Following completion of the experimentation, the samples were analyzed by LC-MS/MS. […] C=initial×exp (−k×t). Intrinsic clearance (CLint) was calculated as liver clearance from the half-life using the following equation: CLint=k×(ml incubation/0.5 mg protein)×(52.5 mg protein/g liver). Results were reported as peak area ratios of analyte to internal standard. The intrinsic clearance (CLint) was determined from the first order elimination constant by non-linear regression. The microsome stability assay, plasma stability assay, and plasma protein binding assay were each performed by Alliance Pharma, Inc. (Malvern, Pa.).

[2] = biological target: T1, recombinant catalytic a domain of human PDI A1 (PDIa) (Homo sapiens, UniProt P07237); assay: Insulin aggregation assay (PDIa reductase activity); format: biochemical
T1 construct: made in house; host or cells: Escherichia coli BL21-Gold (DE3)
T1 sequence (P07237 with tags, fused parts or gaps): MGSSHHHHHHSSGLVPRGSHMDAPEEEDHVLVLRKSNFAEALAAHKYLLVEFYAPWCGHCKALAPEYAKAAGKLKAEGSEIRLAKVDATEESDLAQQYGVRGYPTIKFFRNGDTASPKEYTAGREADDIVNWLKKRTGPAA

PDIa = biological target: T2, PDIa (Homo sapiens, UniProt P07237); assay: Size-exclusion buffer dialysis for reversibility of binding (fluorescence); conditions: PDIa 20 μM treated with LOC14 300 μM overnight, 10 kDa filter dialysis
T2 construct: made in house; host or cells: Escherichia coli BL21-Gold (DE3)
T2 sequence (P07237 with tags, fused parts or gaps): as above
Method: Prior to dialysis, fluorescence emission spectra were recorded from 315 nm-550 nm wavelength with excitation at 280 nm on a Tecan Infinite 200 microplate reader. Fluorescence readings were carried out in a 384-well low volume, black bottom plate. Each well contained 40 μl of either LOC14 (300 μM), PDIa (20 μM), or PDIa (20 μM) treated with LOC14 (300 μM) overnight. All samples were dissolved in buffer B (20 mM sodium phosphate buffer pH 7.8). After recording the initial fluorescence spectra, samples were then transferred to Amicon Ultra 10 kDa size exclusion filter spin columns for dialysis. […] This step was repeated three more times with fresh buffer B. 40 μl of the collected samples from the flow-through and the spin-column chamber were transferred to a new 384-well plate and the emission spectra recorded as described above.
To investigate the mode of binding further and to determine whether the binding was reversible or irreversible, the fluorescence of the LOC14-PDIa complex was analyzed before and after buffer dialysis. […] If LOC14 binds irreversibly to the protein, then the same fluorescence spectrum of the LOC14-PDIa complex would be seen before and after dialysis in the dialysis chamber and none in the buffer compartment, assuming the fluorescence of LOC14 was not dramatically altered upon binding. […]

[3] = mouse liver microsomes, compound 0.5 μM

Structure (SMILES): O=C(C1CC1)N1CCN(Cn2sc3ccccc3c2=O)CC1 [LOC14, 2-((4-(cyclopropanecarbonyl)piperazin-1-yl)methyl)benzo[d]isothiazol-3(2H)-one]
- intrinsic clearance value ([1]; mouse liver microsomes): less than 0.5 ml/min/g
- Elimination rate constant (k) [1, 3]: 0.0016
- Intrinsic Clearance (CLint), mL/min/g liver [1, 3]: 0.17 mL/min/g liver
- half-life at 0.5 μM ([1]; compound 0.5 μM, read-out: Half-life (t1/2)): 7.31 h
- half-life at 0.5 μM ([1]; read-out: half-life): > 1.5 h
- Insulin Assay (either active or inactive) ([2]; Table 5): Active
- PDI's enzymatic activity after dilution of pre-formed complex ([2]; compound 750 μM + PDIa 500 μM, diluted 100-fold): complete recovery
- binding to PDIa reversible or irreversible (PDIa): reversible
